# According to patent US20100174065A1, “COMPOUNDS” (GLAXO GROUP LIMITED, priority 2007, published 2010):
# Where a name gives a salt, the structure may show the parent alone.
# Test system: circulating lymphocytes
# Experiment: not given
# Settings: animals and man; cited from earlier work
row,Compound,effect on circulating lymphocytes
1,CCCCCCCCc1ccc(CCC(N)(CO)CO)cc1 [FTY720],reduce circulating lymphocytes

# Biological target: T1, human S1P1 receptor (Homo sapiens, UniProt P21453)
# T1 construct: expressed in transfected cells; membranes
# T1 sequence (P21453 whole entry): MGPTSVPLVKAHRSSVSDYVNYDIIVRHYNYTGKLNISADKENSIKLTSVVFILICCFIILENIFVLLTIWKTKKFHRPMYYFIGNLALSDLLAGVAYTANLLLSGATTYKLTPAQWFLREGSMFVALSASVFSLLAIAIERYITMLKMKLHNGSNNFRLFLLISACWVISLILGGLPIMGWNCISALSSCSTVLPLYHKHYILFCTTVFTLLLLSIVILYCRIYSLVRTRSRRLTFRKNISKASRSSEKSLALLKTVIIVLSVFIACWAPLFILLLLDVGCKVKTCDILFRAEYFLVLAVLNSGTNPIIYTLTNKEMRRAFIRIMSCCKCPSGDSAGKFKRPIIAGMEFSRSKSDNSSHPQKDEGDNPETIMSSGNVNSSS
# Experiment: S1P1 GTPγS assay
# Type: biochemical
# Settings: agonist activity, [35S]-GTPγS binding, human S1P1 rat hepatoma membranes
# Description: (§1) For membrane preparations all steps were performed at 4° C. Rat hepatoma cells stably expressing the human S1P1 receptor or Rat Basophilic Leukaemia cells (RBL) stably expressing human S1P3 receptor were grown to 80% confluency before being harvested into 10 ml Phospho-Buffered Saline (PBS) and centrifuged at 1200 rpm for 5 minutes. After removal of the supernatant, the pellet was re-suspended and cells were homogenised within a glass Waring blender for 2 bursts of 15 secs in 200 mls of buffer (50 mM HEPES, 1 mM leupeptin, 25 μg/ml bacitracin, 1 mM EDTA, 1 mM PMSF, 2 μM pepstatin A). The blender was plunged into ice for 5 mins after the first burst and 10-40 mins after the final burst to allow foam to dissipate. The material was then spun at 500 g for 20 mins and the supernatant spun for 36 mins at 48,000 g. The pellet was resuspended in the same buffer as above but without PMSF and pepstatin A. The material was then forced through a 0.6 mm needle, made up to the required volume, (usually ×4 the volume of the original cell pellet), aliquoted and stored frozen at −80° C.
# as §1, with “All” for “For membrane preparations all”, “Cells” for “Rat hepatoma cells stably expressing the human S1P1 receptor or Rat Basophilic Leukaemia cells (RBL) stably expressing human S1P3 receptor were grown to 80% confluency before being harvested into 10 ml Phospho-Buffered Saline (PBS) and centrifuged at 1200 rpm for 5 minutes. After removal of the supernatant, the pellet was re-suspended and cells”
# Human S1P1 rat hepatoma membranes (1.5 μg/well) were adhered to a wheatgerm agglutinin (WGA)-coated scintillation proximity assay (SPA) beads (0.125 mg/well) in assay buffer (HEPES 20 mM, MgCl2 10 mM, NaCl 100 mM and pH adjusted to 7.4 using KOH 5M, GDP 10 μM FAC (final assay concentration) and saponin 90 μg/ml FAC was also added).
# After 30 minutes pre-coupling on ice the bead and membrane suspension was dispensed into a white Greiner polypropylene LV384-well plate ([…]), containing 0.1 μl of the compound. 5 μl/well [^355]-GTPγS (0.5 nM final radioligand conc) made up in assay buffer was then added to agonist plates. The final assay cocktail (10.1 μl) was then centrifuged at 1000 rpm for 5 minutes then read immediately on a Viewlux reader.
# All test compounds were dissolved in DMSO at a concentration of 10 mM and were prepared in 100% DMSO using a 1 in 4 dilution step to provide 11 point dose response curves. The dilutions were transferred to the assay plates ensuring that the DMSO concentration was constant across the plate for all assays.
# All data was normalized to the mean of 16 high and 16 low control wells on each plate. A four parameter curve fit was then applied.
# S1P1 expressing RH7777 membranes (1.5 μg/well) membranes (1.5 μg/well) were homogenised by passing through a 23G needle. These were then adhered to WGA-coated SPA beads (0.125 mg/well) in assay buffer (HEPES 20 mM, MgCl2 10 mM, NaCl 100 mM and pH adjusted to 7.4 using KOH 5M). GDP 10 μM FAC and saponin 90 μg/ml FAC were also added
# After 30 minutes precoupling on ice, the bead and membrane suspension was dispensed into white Greiner polypropylene LV 384-well plates (5 μl/well), containing 0.1 μl of compound. 5 μl/well [^35S]-GTPγS (0.5 nM for S1P1 or 0.3 nM for S1P3 final radioligand concentration) made in assay buffer was then added to the plates. The final assay cocktail (10.1 μl) was then sealed, spun on a centrifuge, then read immediately on a Viewlux instrument.
row,EC50 [µM],Compound
1,< 0.1,"CC(C)Oc1ncc(-c2nc(-c3ccc4c(c3)CCN(CCCC(=O)O)CC4)no2)cc1Cl [Example 50, 4-[7-(5-{5-Chloro-6-[(1-methylethyl)oxy]-3-pyridinyl}-1,2,4-oxadiazol-3-yl)-1,2,4,5-tetrahydro-3H-3-benzazepin-3-yl]butanoic acid]"
2,< 0.1,"CC(C)Oc1ccc(-c2nc(-c3ccc4c(c3)CCNCC4)no2)cc1C#N [Example 18, 2-[(1-Methylethyl)oxy]-5-[3-(2,3,4,5-tetrahydro-1H-3-benzazepin-7-yl)-1,2,4-oxadiazol-5-yl]benzonitrile hydrochloride]"
3,< 0.1,"CC(C)Oc1ccc(-c2nc(-c3ccc4c(c3)CN(CCC(=O)O)CCO4)no2)cc1C#N [Example 37, 3-[7-(5-{3-Cyano-4-[(1-methylethyl)oxy]phenyl}-1,2,4-oxadiazol-3-yl)-2,3-dihydro-1,4-benzoxazepin-4(5H)-yl]propanoic acid]"
4,< 0.1,"CC(C)Oc1ccc(-c2nc(-c3cccc4c3OCCN(CCCC(=O)O)C4)no2)cc1C#N [Example 34, 4-[9-(5-{3-Cyano-4-[(1-methylethyl)oxy]phenyl}-1,2,4-oxadiazol-3-yl)-2,3-dihydro-1,4-benzoxazepin-4(5H)-yl]butanoic acid]"
5,< 0.1,"CC(C)Oc1ccc(-c2nc(-c3ccc4c(c3)CNCCO4)no2)cc1C#N [Example 35, 2-[(1-Methylethyl)oxy]-5-[3-(2,3,4,5-tetrahydro-1,4-benzoxazepin-7-yl)-1,2,4-oxadiazol-5-yl]benzonitrile hydrochloride]"
6,< 0.1,"CC(C)Oc1ccc(-c2nc(-c3ccc4c(c3)CCCN(CCC(=O)O)C4)no2)cc1C#N [Example 6, 3-[7-(5-{3-Cyano-4-[(1-methylethyl)oxy]phenyl}-1,2,4-oxadiazol-3-yl)-1,3,4,5-tetrahydro-2H-2-benzazepin-2-yl]propanoic acid hydrochloride]"
7,< 0.1,"CC(C)Oc1ccc(-c2nc(-c3cccc4c3OCCN(CCCCC(=O)O)C4)no2)cc1C#N [Example 43, 5-[9-(5-{3-Cyano-4-[(1-methylethyl)oxy]phenyl}-1,2,4-oxadiazol-3-yl)-2,3-dihydro-1,4-benzoxazepin-4(5H)-yl]pentanoic acid]"
8,< 0.1,"CC(C)Oc1ccc(-c2nc(-c3cccc4c3CCNCC4)no2)cc1Cl [Example 8, 6-(5-{3-Chloro-4-[(1-methylethyl)oxy]phenyl}-1,2,4-oxadiazol-3-yl)-2,3,4,5-tetrahydro-1H-3-benzazepine hydrochloride]"
9,≤ 0.01,"CC(C)Oc1ccc(-c2nc(-c3ccc4c(c3)CCN(CCCC(=O)O)CC4)no2)cc1Cl [Example 26, 4-[7-(5-{3-Chloro-4-[(1-methylethyl)oxy]phenyl}-1,2,4-oxadiazol-3-yl)-1,2,4,5-tetrahydro-3H-3-benzazepin-3-yl]butanoic acid]"
10,≤ 0.01,"CC(C)Oc1ccc(-c2nc(-c3cccc4c3CCNCC4)no2)cc1C#N [Example 7, 2-[(1-Methylethyl)oxy]-5-[3-(2,3,4,5-tetrahydro-1H-3-benzazepin-6-yl)-1,2,4-oxadiazol-5-yl]benzonitrile hydrochloride]"
11,< 0.1,"O=C(O)CN1CCc2ccc(-c3noc(-c4ccc(-c5ccccc5)c(C(F)(F)F)c4)n3)cc2CC1 [Example 25, (7-{5-[2-(Trifluoromethyl)-4-biphenylyl]-1,2,4-oxadiazol-3-yl}-1,2,4,5-tetrahydro-3H-3-benzazepin-3-yl)acetic acid]"
12,≤ 0.01,"CC(C)Oc1ccc(-c2nc(-c3ccc4c(c3)CCN(CCCC(=O)O)CC4)no2)cc1C(F)(F)F [Example 28, 4-(7-{5-[4-[(1-Methylethyl)oxy]-3-(trifluoromethyl)phenyl]-1,2,4-oxadiazol-3-yl}-1,2,4,5-tetrahydro-3H-3-benzazepin-3-yl)butanoic acid hydrochloride]"
13,< 0.1,"O=C(O)CCCN1CCc2ccc(-c3noc(-c4ccc(-c5ccccc5)c(C(F)(F)F)c4)n3)cc2CC1 [Example 29, 4-(7-{5-[2-(Trifluoromethyl)-4-biphenylyl]-1,2,4-oxadiazol-3-yl}-1,2,4,5-tetrahydro-3H-3-benzazepin-3-yl)butanoic acid hydrochloride]"

row,Compound,EC50 [µM]
1,"CC(C)Oc1ncc(-c2nc(-c3ccc4c(c3)CCNCC4)no2)cc1C#N [Example 48, 2-[(1-Methylethyl)oxy]-5-[3-(2,3,4,5-tetrahydro-1H-3-benzazepin-7-yl)-1,2,4-oxadiazol-5-yl]-3-pyridinecarbonitrile formate]",< 0.1

# Test system: not given
# Experiment: not given
# Settings: clinical studies, first 24 hours of treatment; cited from earlier work
row,Compound,bradycardia on treatment
1,CCCCCCCCc1ccc(CCC(N)(CO)CO)cc1 [FTY720],results in bradycardia
